Test results taken from patent US9505728B2, “Triazolone compounds and uses thereof” (INCEPTION 2, INC., priority 2012, dated 2016).

target: T1, Human PPARα (Homo sapiens, UniProt Q07869); assay: Human PPARα Reporter Assay (luciferase); format: cell-based; settings: human PPARα reporter cells, overnight incubation, antagonism; read-out: Luciferase IC50
T1 construct: host or cells: proprietary non-human mammalian cells
T1 sequence (Q07869 1-468): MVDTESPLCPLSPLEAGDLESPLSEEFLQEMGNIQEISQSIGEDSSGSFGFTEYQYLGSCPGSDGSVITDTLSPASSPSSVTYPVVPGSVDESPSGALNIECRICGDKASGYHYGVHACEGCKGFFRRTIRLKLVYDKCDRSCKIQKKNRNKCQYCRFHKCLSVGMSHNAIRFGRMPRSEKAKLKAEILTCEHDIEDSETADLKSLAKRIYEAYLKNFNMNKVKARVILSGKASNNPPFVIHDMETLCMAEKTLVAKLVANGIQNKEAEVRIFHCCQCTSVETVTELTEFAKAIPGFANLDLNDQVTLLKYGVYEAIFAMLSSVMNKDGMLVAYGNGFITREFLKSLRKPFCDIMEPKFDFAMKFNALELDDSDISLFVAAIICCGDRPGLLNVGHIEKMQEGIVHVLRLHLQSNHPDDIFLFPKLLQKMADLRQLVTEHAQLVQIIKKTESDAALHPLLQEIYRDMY
Outline: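 Non-human mammalian cells constitutively expressing human PPARα with a PPARα-responsive luciferase reporter were dosed with compounds right after plating. After overnight incubation, media removed and detection reagent added; luminescence taken as proportional to PPARα activation, agonist or antagonist mode.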

IC50 [nM] | SMILES
264 | CCn1c(CCCc2ccc(-c3ccc(NS(=O)(=O)c4ccccc4)c(OC)n3)cc2)nn(Cc2ccc(C(C)(C)C)cc2)c1=O [Example 98, 1-{[4-(tert-Butyl)phenyl]methyl}-4-ethyl-3-[3-(4-{6-methoxy-5-[(phenylsulfonyl)amino](2-pyridyl)}phenyl)propyl]-1,2,4-triazolin-5-one]
408 | CCn1c(CCCc2ccc(-c3cc(NS(C)(=O)=O)ccn3)cc2)nn(Cc2ccc(C(C)(C)C)cc2)c1=O [Example 40, 1-{[4-(tert-Butyl)phenyl]methyl}-4-ethyl-3-[3-(4-{4-[(methylsulfonyl)amino](2-pyridyl)}phenyl)propyl]-1,2,4-triazolin-5-one]
1830 | CCn1c(CCCc2ccc(-c3cc(CC(=O)O)ccc3OC)cc2)nn(Cc2ccc(C(C)(C)C)cc2)c1=O [Example 20, 2-(4′-(3-(1-(4-(tert-Butyl)benzyl)-4-ethyl-5-oxo-4,5-dihydro-1H-1,2,4-triazol-3-yl)propyl)-6-methoxy-[1,1′-biphenyl]-3-yl)acetic acid]
846 | CCn1c(CCCc2ccc(-c3ncc(OC)c(C(=O)O)n3)cc2)nn(Cc2ccc(C(C)(C)C)cc2)c1=O [Example 181, 2-(4-(3-(1-(4-(tert-Butyl)benzyl)-4-ethyl-5-oxo-4,5-dihydro-1H-1,2,4-triazol-3-yl)propyl)phenyl)-5-methoxypyrimidine-4-carboxylic acid]
184 | CCn1c(CCCc2ccc(-c3nc(NC(=O)OC(C)(C)C)co3)cc2)nn(Cc2ccc(C(C)(C)C)cc2)c1=O [Example 25, tert-Butyl (2-(4-(3-(1-(4-(tert-butyl)benzyl)-4-ethyl-5-oxo-4,5-dihydro-1H-1,2,4-triazol-3-yl)propyl)phenyl)oxazol-4-yl)carbamate]
623 | CCn1c(CCCc2ccc(-c3ccc(OC)c(CC(=O)O)c3)cn2)nn(Cc2ccc(C(C)(C)C)cc2)c1=O [Example 198, 2-(5-(6-(3-(1-(4-(tert-Butyl)benzyl)-4-ethyl-5-oxo-4,5-dihydro-1H-1,2,4-triazol-3-yl)propyl)pyridin-3-yl)-2-methoxyphenyl)acetic acid]
5 | CCn1c(CCCc2ccc(-c3ccc(OC)c(NS(=O)(=O)c4ccc(Cl)cc4)n3)cc2)nn(Cc2ccc(C(C)(C)C)cc2)c1=O [Example 92, 1-{[4-(tert-Butyl)phenyl]methyl}-3-{3-[4-(6-{[(4-chlorophenyl)sulfonyl]amino}-5-methoxy(2-pyridyl))phenyl]propyl}-4-ethyl-1,2,4-triazolin-5-one]
121 | CCn1c(CCCc2ccc(-c3ccc(OC)c(CCC(=O)O)c3)cc2)nn(Cc2ccc(C(C)(C)C)cc2)c1=O [Example 179, 3-(5-{4-[3-(1-{[4-(tert-Butyl)phenyl]methyl}-4-ethyl-5-oxo(1,2,4-triazolin-3-yl))propyl]phenyl}-2-methoxyphenyl)propanoic acid]
676 | CCn1c(CCCc2ccc(-c3ccc(C4(C(=O)O)CC4)cc3)cc2)nn(Cc2ccc(C(C)(C)C)cc2)c1=O [Example 137, 1-(4′-(3-(1-(4-(tert-Butyl)benzyl)-4-ethyl-5-oxo-4,5-dihydro-1H-1,2,4-triazol-3-yl)propyl)-[1,1′-biphenyl]-4-yl)cyclopropanecarboxylic acid]
971 | CCn1c(CCCc2ccc(-c3ccc(NS(=O)(=O)c4ccc(C(F)(F)F)cc4)cn3)cc2)nn(Cc2ccc(C(C)(C)C)cc2)c1=O [Example 86, 1-{[4-(tert-Butyl)phenyl]methyl}-4-ethyl-3-(3-{4-[5-({[4-(trifluoromethyl)phenyl]sulfonyl}amino)(2-pyridyl)]phenyl}propyl)-1,2,4-triazolin-5-one]
445 | CCn1c(CCCc2ccc(-c3cc(C)c(NS(=O)(=O)Cc4ccccc4)cn3)cc2)nn(Cc2ccc(C(C)(C)C)cc2)c1=O [Example 127, 1-{[4-(tert-Butyl)phenyl]methyl}-4-ethyl-3-{3-[4-(4-methyl-5-{[benzylsulfonyl]amino}(2-pyridyl))phenyl]propyl}-1,2,4-triazolin-5-one]
292 | CCn1c(CCCc2ccc(-c3ccc(CC(=O)O)c(OC)c3)cc2)nn(Cc2ccc(C(C)(C)C)cc2)c1=O [Example 199, 2-(4′-(3-(1-(4-(tert-Butyl)benzyl)-4-ethyl-5-oxo-4,5-dihydro-1H-1,2,4-triazol-3-yl)propyl)-3-methoxy-[1,1′-biphenyl]-4-yl)acetic acid]
591 | CCn1c(CCCc2ccc(-c3ccc(CS(=O)(=O)NCc4ccccc4)cc3)cc2)nn(Cc2ccc(C(C)(C)C)cc2)c1=O [Example 104, N-Benzyl-1-(4′-(3-(1-(4-(tert-butyl)benzyl)-4-ethyl-5-oxo-4,5-dihydro-1H-1,2,4-triazol-3-yl)propyl)-[1,1′-biphenyl]-4-yl)methanesulfonamide]
101 | CCn1c(CCCc2ccc(-c3ccc(C4(F)COC4)cc3)cc2)nn(Cc2ccc(C(C)(C)C)cc2)c1=O [Example 143, 1-(4-(tert-Butyl)benzyl)-4-ethyl-3-(3-(4%(3-fluorooxetan-3-yl)-[1,1′-biphenyl]-4-yl)propyl)-1H-1,2,4-triazol-5(4H)-one]
109 | CCn1c(CCCc2ccc(-c3ccc(C(F)(F)F)c(C(=O)O)c3)cc2)nn(Cc2ccc(C(C)(C)C)cc2)c1=O [Example 134, 4′-(3-(1-(4-(tert-Butyl)benzyl)-4-ethyl-5-oxo-4,5-dihydro-1H-1,2,4-triazol-3-yl)propyl)-4-(trifluoromethyl)-[1,1′-biphenyl]-3-carboxylic acid]
6 | CCn1c(CCCc2ccc(-c3ccc(OC)c(C(=O)O)c3)cc2)nn(Cc2ccc(C(C)(C)C)cc2)c1=O [Example 65, 4′-(3-(1-(4-(tert-Butyl)benzyl)-4-ethyl-5-oxo-4,5-dihydro-1H-1,2,4-triazol-3-yl)propyl)-4-methoxy-[1,1′-biphenyl]-3-carboxylic acid]
10 | CCn1c(CCCc2ccc(-c3ccc(OC)c(NS(=O)(=O)Cc4ccccc4)n3)cc2)nn(Cc2ccc(C(C)(C)C)cc2)c1=O [Example 87, 1-{[4-(tert-Butyl)phenyl]methyl}-4-ethyl-3-{3-[4-(5-methoxy-6-{[benzylsulfonyl]amino}(2-pyridyl))phenyl]propyl}-1,2,4-triazolin-5-one]
562 | CCn1c(CCCc2ccc(-c3ccc(OC)c(CC(=O)O)c3)cc2)nn(Cc2ccc(C3(F)COC3)cc2)c1=O [Example 63]
454 | CC(C)(C)c1ccc(Cn2nc(CCCc3ccc(-c4ccc(C5(O)COC5)cc4)cc3)[nH]c2=O)cc1 [Example 167, 1-(4-(tert-Butyl)benzyl)-3-(3-(4%(3-hydroxyoxetan-3-yl)-[1,1′-biphenyl]-4-yl)propyl)-1H-1,2,4-triazol-5(4H)-one]
106 | CCn1c(CCCc2ccc(-c3ccc(C4(O)COC4)cn3)cc2)nn(Cc2ccc(C(C)(C)C)cc2)c1=O [Example 197, 1-(4-(tert-Butyl)benzyl)-4-ethyl-3-(3-(4-(5-(3-hydroxyoxetan-3-yl)pyridine-2-yl)phenyl)propyl)-1H-1,2,4-triazol-5(4H)-one]
519 | CCn1c(CCCc2ccc(-c3cccc(C(C)(C)C(N)=O)c3)cc2)nn(Cc2ccc(C(C)(C)C)cc2)c1=O [Example 15, 2-(4′-(3-(1-(4-(tert-Butyl)benzyl)-4-ethyl-5-oxo-4,5-dihydro-1H-1,2,4-triazol-3-yl)propyl)-[1,1′-biphenyl]-3-yl)-2-methylpropanamide]
165 | CCn1c(CCCc2ccc(-c3ncc(NS(=O)(=O)c4ccccc4)cn3)cc2)nn(Cc2ccc(C(C)(C)C)cc2)c1=O [Example 108, N-(2-(4-(3-(1-(4-(tert-Butyl)benzyl)-4-ethyl-5-oxo-4,5-dihydro-1H-1,2,4-triazol-3-yl)propyl)phenyl)pyrimidin-5-yl)benzenesulfonamide]
